Test results from ChEMBL document CHEMBL3885861, “Open TG-GATES”.

Species on record: Rattus norvegicus
Assay: Open TG-GATES - Regimen: Daily Repeat
Format: toxicity, organism-based, Sprague-Dawley
Set-up: regimen Daily Repeat, gender Male, age 6 weeks
Settings: in vivo, po, route gavage; for APTT / Bas / Eos / Fbg / Hb / Ht / Lym / MCH / MCHC / MCV / Mono / Neu / PT / Plat / RBC / Ret / WBC: tissue Blood; for KIDNEY_L / KIDNEY_R / KIDNEY_TOTAL: tissue Kidney; for LIVER: tissue Liver; for ALP / ALT / AST / BUN / CRE / DBIL / GLC / K / Na / PL / RALB / TBIL / TC / TG / TP / gamma-GTP: tissue Plasma
[1] = 0 mg/kg, 72 h, dose level Control, time 3 day
[2] = 0 mg/kg, […], dose level Control, time 7 day
[3] = 0 mg/kg, […], dose level Control, time 14 day
[4] = 0 mg/kg, […], dose level Control, time 28 day
[5] = 25 mg/kg, 72 h, dose level Low, time 3 day
[6] = 25 mg/kg, […], dose level Low, time 7 day
[7] = 25 mg/kg, […], dose level Low, time 14 day
[8] = 25 mg/kg, […], dose level Low, time 28 day

**Q.** Which results are given for CN1C(=O)CN=C(c2ccccc2)c2cc(Cl)ccc21 [DIAZEPAM]?
**A.** TERMINAL_BW [1]: 246.7 g; APTT [1]: 16.3 s; Bas [1]: 0%; Eos [1]: 1.2%; Fbg [1]: 235.6 mg/dL; Hb [1]: 13.5 g/dL; Ht [1]: 40.6%; Lym [1]: 78.6%; MCH [1]: 21.4 pg; MCHC [1]: 33.2%; MCV [1]: 64.4 fL; Mono [1]: 6.4%; Neu [1]: 14.2%; PT [1]: 12 s; Plat [1]: 114.2 x10_4/uL; RBC [1]: 630.6 x10_4/ul; Ret [1]: 6.6%; WBC [1]: 104 x10_2/uL; KIDNEY_L [1]: 1.1 g; KIDNEY_R [1]: 1.1 g; KIDNEY_TOTAL [1]: 2.2 g; LIVER [1]: 12.5 g; ALP [1]: 817.2 IU/L; ALT [1]: 34.2 IU/L; AST [1]: 59.4 IU/L; BUN [1]: 17.2 mg/dL; CRE [1]: 0.5 mg/dL; DBIL [1]: 0.006 mg/dL; GLC [1]: 198.8 mg/dL; K [1]: 5 meq/L; Na [1]: 138.9 meq/L; PL [1]: 154 mg/dL; RALB [1]: 4 g/dL; TBIL [1]: 0.3 mg/dL; TC [1]: 78.4 mg/dL; TG [1]: 115.4 mg/dL; TP [1]: 6 g/dL; gamma-GTP [1]: 1.6 IU/L; TERMINAL_BW [2]: 289.2 g; TERMINAL_BW [3]: 333.2 g; TERMINAL_BW [4]: 416.1 g; APTT [2]: 16 s; Bas [2]: 0%; Eos [2]: 1%; Fbg [2]: 237.8 mg/dL; Hb [2]: 14.2 g/dL; Ht [2]: 42.8%; Lym [2]: 79.2%; MCH [2]: 21.8 pg; MCHC [2]: 33.2%; MCV [2]: 65.6 fL; Mono [2]: 9.4%; Neu [2]: 11%; PT [2]: 11.4 s; Plat [2]: 106.5 x10_4/uL; RBC [2]: 653.4 x10_4/ul; Ret [2]: 6.3%; WBC [2]: 120.8 x10_2/uL; APTT [3]: 16.4 s; Bas [3]: 0%; Eos [3]: 0.6%; Fbg [3]: 234 mg/dL; Hb [3]: 15.2 g/dL; Ht [3]: 45.6%; Lym [3]: 80.6%; MCH [3]: 20.9 pg; MCHC [3]: 33.3%; MCV [3]: 62.9 fL; Mono [3]: 3.6%; Neu [3]: 14.8%; PT [3]: 12 s; Plat [3]: 92.8 x10_4/uL; RBC [3]: 725.4 x10_4/ul; Ret [3]: 4.5%; WBC [3]: 149.8 x10_2/uL; APTT [4]: 17 s; Bas [4]: 0%; Eos [4]: 1.2%; Fbg [4]: 227.2 mg/dL; Hb [4]: 15.8 g/dL; Ht [4]: 47.5%; Lym [4]: 83.6%; MCH [4]: 19 pg; MCHC [4]: 33.3%; MCV [4]: 57 fL; Mono [4]: 6.4%; Neu [4]: 9%; PT [4]: 12.3 s; Plat [4]: 102.6 x10_4/uL; RBC [4]: 833 x10_4/ul; Ret [4]: 2.2%; WBC [4]: 146.4 x10_2/uL; KIDNEY_L [2]: 1.2 g; KIDNEY_R [2]: 1.3 g; KIDNEY_TOTAL [2]: 2.5 g; KIDNEY_L [3]: 1.3 g; KIDNEY_R [3]: 1.3 g; KIDNEY_TOTAL [3]: 2.7 g; KIDNEY_L [4]: 1.4 g; KIDNEY_R [4]: 1.5 g; KIDNEY_TOTAL [4]: 2.9 g; LIVER [2]: 14.8 g; LIVER [3]: 14.8 g; LIVER [4]: 17.1 g; ALP [2]: 843.2 IU/L; ALT [2]: 37.2 IU/L; AST [2]: 60.4 IU/L; BUN [2]: 17.8 mg/dL; CRE [2]: 0.5 mg/dL; DBIL [2]: 0.02 mg/dL; GLC [2]: 188.8 mg/dL; K [2]: 5.1 meq/L; Na [2]: 137.6 meq/L; PL [2]: 184.8 mg/dL; RALB [2]: 4.2 g/dL; TBIL [2]: 0.3 mg/dL; TC [2]: 92.8 mg/dL; TG [2]: 164.6 mg/dL; TP [2]: 6.4 g/dL; gamma-GTP [2]: 1.6 IU/L; ALP [3]: 714 IU/L; ALT [3]: 37.4 IU/L; AST [3]: 68.2 IU/L; BUN [3]: 19.4 mg/dL; CRE [3]: 0.6 mg/dL; DBIL [3]: 0.01 mg/dL; GLC [3]: 183.2 mg/dL; K [3]: 4.6 meq/L; Na [3]: 141.1 meq/L; PL [3]: 149.2 mg/dL; RALB [3]: 4 g/dL; TBIL [3]: 0.3 mg/dL; TC [3]: 72 mg/dL; TG [3]: 131.8 mg/dL; TP [3]: 6.4 g/dL; gamma-GTP [3]: 1 IU/L; ALP [4]: 591.2 IU/L; ALT [4]: 28.4 IU/L; AST [4]: 54.2 IU/L; BUN [4]: 19.8 mg/dL; CRE [4]: 0.7 mg/dL; DBIL [4]: 0.002 mg/dL; GLC [4]: 182.8 mg/dL; K [4]: 4.5 meq/L; Na [4]: 139.4 meq/L; PL [4]: 147.8 mg/dL; RALB [4]: 4.1 g/dL; TBIL [4]: 0.2 mg/dL; TC [4]: 67.2 mg/dL; TG [4]: 165.6 mg/dL; TP [4]: 6.6 g/dL; gamma-GTP [4]: 1.2 IU/L; TERMINAL_BW [5]: 248 g; APTT [5]: 16.5 s; Bas [5]: 0%; Eos [5]: 1%; Fbg [5]: 230 mg/dL; Hb [5]: 13.9 g/dL; Ht [5]: 42%; Lym [5]: 84%; MCH [5]: 21.5 pg; MCHC [5]: 33.2%; MCV [5]: 64.8 fL; Mono [5]: 3.8%; Neu [5]: 11.2%; PT [5]: 12 s; Plat [5]: 100.7 x10_4/uL; RBC [5]: 647.8 x10_4/ul; Ret [5]: 6.3%; WBC [5]: 155.1 x10_2/uL; KIDNEY_L [5]: 1.1 g; KIDNEY_R [5]: 1.1 g; KIDNEY_TOTAL [5]: 2.1 g; LIVER [5]: 12 g; ALP [5]: 908.6 IU/L; ALT [5]: 37.4 IU/L; AST [5]: 63.4 IU/L; BUN [5]: 16.8 mg/dL; CRE [5]: 0.6 mg/dL; DBIL [5]: 0.016 mg/dL; GLC [5]: 193.2 mg/dL; K [5]: 4.7 meq/L; Na [5]: 139.3 meq/L; PL [5]: 150.4 mg/dL; RALB [5]: 4.1 g/dL; TBIL [5]: 0.3 mg/dL; TC [5]: 81.4 mg/dL; TG [5]: 76.4 mg/dL; TP [5]: 6 g/dL; gamma-GTP [5]: 1 IU/L; TERMINAL_BW [6]: 279.2 g; TERMINAL_BW [7]: 331.4 g; TERMINAL_BW [8]: 411.1 g; APTT [6]: 16.6 s; Bas [6]: 0%; Eos [6]: 0.8%; Fbg [6]: 223 mg/dL; Hb [6]: 14.2 g/dL; Ht [6]: 42.5%; Lym [6]: 79.6%; MCH [6]: 20.8 pg; MCHC [6]: 33.4%; MCV [6]: 62.3 fL; Mono [6]: 3.8%; Neu [6]: 16.2%; PT [6]: 11.4 s; Plat [6]: 116.1 x10_4/uL; RBC [6]: 681.6 x10_4/ul; Ret [6]: 5.7%; WBC [6]: 115.6 x10_2/uL; APTT [7]: 16.6 s; Bas [7]: 0%; Eos [7]: 0.8%; Fbg [7]: 225.8 mg/dL; Hb [7]: 14.8 g/dL; Ht [7]: 44.6%; Lym [7]: 83.2%; MCH [7]: 20.1 pg; MCHC [7]: 33.3%; MCV [7]: 60.3 fL; Mono [7]: 5.6%; Neu [7]: 10.6%; PT [7]: 12 s; Plat [7]: 110.6 x10_4/uL; RBC [7]: 740 x10_4/ul; Ret [7]: 4.1%; WBC [7]: 120.7 x10_2/uL; APTT [8]: 18 s; Bas [8]: 0%; Eos [8]: 0.6%; Fbg [8]: 223.8 mg/dL; Hb [8]: 15.8 g/dL; Ht [8]: 47.2%; Lym [8]: 83.4%; MCH [8]: 19.3 pg; MCHC [8]: 33.4%; MCV [8]: 57.7 fL; Mono [8]: 3.6%; Neu [8]: 12%; PT [8]: 12.1 s; Plat [8]: 102.8 x10_4/uL; RBC [8]: 818.6 x10_4/ul; Ret [8]: 2.7%; WBC [8]: 154.6 x10_2/uL; KIDNEY_L [6]: 1.2 g; KIDNEY_R [6]: 1.2 g; KIDNEY_TOTAL [6]: 2.4 g; KIDNEY_L [7]: 1.3 g; KIDNEY_R [7]: 1.3 g; KIDNEY_TOTAL [7]: 2.6 g; KIDNEY_L [8]: 1.4 g; KIDNEY_R [8]: 1.4 g; KIDNEY_TOTAL [8]: 2.8 g; LIVER [6]: 14.1 g; LIVER [7]: 14.8 g; LIVER [8]: 16.9 g; ALP [6]: 886.2 IU/L; ALT [6]: 33.6 IU/L; AST [6]: 62 IU/L; BUN [6]: 18.8 mg/dL; CRE [6]: 0.5 mg/dL; DBIL [6]: 0.024 mg/dL; GLC [6]: 188.2 mg/dL; K [6]: 4.9 meq/L; Na [6]: 137.7 meq/L; PL [6]: 170.4 mg/dL; RALB [6]: 4.1 g/dL; TBIL [6]: 0.3 mg/dL; TC [6]: 77.8 mg/dL; TG [6]: 168.6 mg/dL; TP [6]: 6.1 g/dL; gamma-GTP [6]: 1.2 IU/L; ALP [7]: 848.8 IU/L; ALT [7]: 34.4 IU/L; AST [7]: 64.4 IU/L; BUN [7]: 18.4 mg/dL; CRE [7]: 0.6 mg/dL; DBIL [7]: 0.002 mg/dL; GLC [7]: 190.2 mg/dL; K [7]: 4.4 meq/L; Na [7]: 140.3 meq/L; PL [7]: 148.2 mg/dL; RALB [7]: 4 g/dL; TBIL [7]: 0.3 mg/dL; TC [7]: 66.4 mg/dL; TG [7]: 154.8 mg/dL; TP [7]: 6.1 g/dL; gamma-GTP [7]: 0.8 IU/L; ALP [8]: 483.4 IU/L; ALT [8]: 30.6 IU/L; AST [8]: 60.4 IU/L; BUN [8]: 19.8 mg/dL; CRE [8]: 0.6 mg/dL; DBIL [8]: 0.016 mg/dL; GLC [8]: 201.4 mg/dL; K [8]: 4.3 meq/L; Na [8]: 140.7 meq/L; PL [8]: 135.6 mg/dL; RALB [8]: 4 g/dL; TBIL [8]: 0.3 mg/dL; TC [8]: 63.6 mg/dL; TG [8]: 134.2 mg/dL; TP [8]: 6.5 g/dL; gamma-GTP [8]: 1 IU/L
